Here are results for 2 compounds from patent US10711006B2, “Selective Bruton's tyrosine kinase inhibitor and use thereof” (HANGZHOU HERTZ PHARMACEUTICAL CO., LTD., priority 2016, dated 2020).

What is called bioavailability is the share of a dose that reaches the circulation, judged against a reference dose that is usually intravenous. Low values mean little systemic uptake, high ones much systemic uptake. For orientation: Cmax means the maximum level reached in the sampled fluid or tissue. A word on the Tmax: it is the time at which the peak concentration occurs. The term half-life denotes the time needed for the level to fall by half in the phase considered. A lower half-life goes with fast loss.

The target of one data set is FGR (Homo sapiens (Human), UniProt P09769). As to the kind of experiment: Kinase selectivity experiment, FGR. In kind it is biochemical. The conditions noted are these: read-out: Inhibitory activity against FGR (IC50). On the procedure: (§1) A 1× kinase base buffer and a reaction stop buffer for respective kinases in the experiment were prepared as required.
FGR, sequence (P09769 whole entry, species assumed): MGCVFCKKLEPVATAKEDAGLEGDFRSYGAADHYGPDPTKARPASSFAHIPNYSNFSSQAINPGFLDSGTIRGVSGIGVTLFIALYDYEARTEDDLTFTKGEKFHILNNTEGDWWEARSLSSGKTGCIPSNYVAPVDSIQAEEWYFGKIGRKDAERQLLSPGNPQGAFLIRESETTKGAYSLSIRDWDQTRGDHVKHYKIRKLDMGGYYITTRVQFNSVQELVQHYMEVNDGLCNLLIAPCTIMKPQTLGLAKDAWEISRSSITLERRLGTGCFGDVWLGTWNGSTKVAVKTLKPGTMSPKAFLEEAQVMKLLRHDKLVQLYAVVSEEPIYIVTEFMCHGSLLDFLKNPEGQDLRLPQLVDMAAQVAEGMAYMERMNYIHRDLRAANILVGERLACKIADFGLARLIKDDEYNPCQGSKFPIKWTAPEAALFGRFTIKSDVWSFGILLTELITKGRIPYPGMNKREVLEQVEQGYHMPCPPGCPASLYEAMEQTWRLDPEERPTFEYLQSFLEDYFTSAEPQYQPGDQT
(§2) Preparation of Compounds to be Tested:
(§3) 2) diluting each compound at a 5-fold concentration gradient in a 96-well plate to 6 to 7 concentrations and ensuring that the drug volume in each well was 10 μl; and at the same time adding 100 μl of DMSO to prepare a blank control group and also preparing a negative control group without the enzyme substrate; and
(§4) 3) preparing another 96-well plate, adding 10 μl of each of the above compounds to 90 μl of the 1× kinase base buffer and mixing for 10 minutes to be uniform.
(§5) Preparation of the Plate to be Tested:
(§6) 1) 5 μl of the mixed solution prepared as above in the 96-well plate was taken and transferred to a 384-well plate, with two replicate wells for each compound.
(§7) 1) Preparing a 2.5× kinase solution and adding a corresponding 1× kinase base buffer;
(§8) 2) preparing a 2.5× polypeptide solution and adding FAM-labeled polypeptide and ATP in the 1× kinase base buffer; and
(§9) 3) adding 10 μl of 2.5× kinase solution to a 384-well plate to be tested, placing in a room-temperature environment for 10 minutes, and then adding 10 μl of the 2.5× polypeptide solution, reacting at 28° C. for 1 hour, and then adding 25 μl of a reaction stop buffer.
(§10) The Caliper program reads the plate and uses the data to obtain the IC50 values of the corresponding compounds against kinases.

A further data set concerns the target JAK3 (Homo sapiens (Human), UniProt P52333). Put plainly: Kinase selectivity experiment, JAK3. The format is biochemical. The conditions noted are these: read-out: Inhibitory activity against JAK3 (IC50). On the procedure:
as §1, §2, §3, §4, §5, §6, §7, §8, §9, §10

Data set [1] has as its system arthritis induced by anti-collagen antibodies and lipopolysaccharides. As to the kind of experiment: Rheumatoid arthritis model induced by anti-collagen antibodies and lipopolysaccharides. The following applies: for level of IL-1β in serum (in words): 10 mg/kg orally once a day; for level of IL-1β in serum (in words) / inflammatory cell infiltration, synovial hyperplasia, inflammatory granulation tissue formation, necrotic tissue: versus model group; for IL-1β: serum on Day 13, 10 mg/kg orally once a day Day 2 to Day 12; for inflammatory cell infiltration, synovial hyperplasia, inflammatory granulation tissue formation, necrotic tissue: tissue samples after treatment. In kind it is in vivo, Balb/c mice. On the procedure:
In Balb/c mice, arthritis was induced by administration of anti-collagen antibodies and lipopolysaccharides (Nandakumar et al., Am. J. Pathol. 2003, 163: 1827-1837).
The specific method was as follows: On Day 0, female Balb/c mice were intravenously injected with anti-type II collagen ChemicomAb mixture in a dose of 100 mg/kg, and on Day 1, lipopolysaccharide was intraperitoneally injected in a dose of 1.25 mg/kg. From Day 2 to Day 12, Compounds 15a, 17a, 24a and 24e were orally administered once a day in a dose of 10 mg/kg. On Day 13 after abdominal anesthesia, […] of blood was taken from the femoral artery and centrifuged at 3000 r/min for 20 minutes, serum was taken to detect IL-1β with a test kit, and related tissue samples were observed.

Data set [2] deals with Mino subcutaneous xenograft tumor. As to the kind of experiment: In-vivo pharmacodynamic study on Mino subcutaneous xenograft tumor models. The conditions noted are these: CB17 SCID mice, intragastric, twice a day. The protocol:
In CB17 SCID mice, 0.2 mL of cell suspension containing 5×10^6 Mino cells was subcutaneously inoculated into the right back of each mouse, and when the mean tumor volume reaches approximately 139.94 mm3 (day 26 after inoculation), group administration was started (intragastric administration, twice a day, 14 days in total). Animals were monitored daily for health and mortality, and tumor diameters were measured twice a week using vernier calipers to see if tumor growth could be inhibited, delayed, or cured.

Data set [3] is described as follows: Oral pharmacokinetic experiment in SD rats. The format is in vivo. The conditions noted are these: for oral bioavailability relative to ibrutinib: oral 10 mg/kg; for AUC0-C(ng/h/mL) / AUC0-t (ng/h/mL) / Cmax / Tmax / half-life: oral (intragastric) 10 mg/kg; for AUC0-C(ng/h/mL) / AUC0-t (ng/h/mL) / bioavailability / Cmax / Tmax / half-life: mean n = 3; for bioavailability / Cmax / Tmax / half-life: rat, plasma; for bioavailability: oral 10 mg/kg vs intravenous 2 mg/kg. The protocol: SD rats were used as experimental animals and were subjected to intragastric administration in a dose of 10 mg/kg and tail-vein intravenous injection in a dose of 2 mg/kg. The tail-vein blood sampling time points in the intragastric administration were 0.17, 0.33, 0.5, 1, 1.5, 2, 4, 6, 8, 12, and 24 hours; the blood sampling time points in the intravenous administration were 0.05, 0.1, 0.17, 0.5, 1, 2, 4, 6, 8, 12, and 24 hours. 0.3 ml of whole blood was taken, and 0.1 ml of plasma after centrifugation was taken and analyzed by LC-MS.

In data set [4] the test system is human lung cancer cell (A549). As to the kind of experiment: In-vitro tumor cell proliferation inhibition (CCK-8), A549. The conditions noted are these: A549, 72 h, read-out: Tumor cell proliferation inhibitory activity (IC50, μM) A549.
Data set [5] deals with human mantle cell lymphoma (MINO). As to the kind of experiment: In-vitro tumor cell proliferation inhibition (CCK-8), MINO. The following applies: 72 h, read-out: Tumor cell proliferation inhibitory activity (IC50, μM) MINO.
Description: (§11) The in-vitro antitumor activity assay was carried out on the synthesized compound by using different solid tumors and leukemia cell lines:
(§12) Cell lines: human lung cancer cell (A549), human mantle cell lymphoma (MINO), diffuse giant B-cell lymphoma (OCI-LY10), and human diffuse large B lymphoma (TMD-8).
(§13) Preparation method of the drug: the drug was dissolved in DMSO to make a 10 mM stock solution, and then the stock solution was diluted in a certain ratio to obtain 5 different concentrations (test concentration 100×). In-vitro culture of tumor cells:
(§14) The tumor cells A549, MINO, OCI-LY10, and TMD-8 were seeded in a 96-well plate at 4000 cells/200 μL/well and then incubated overnight at 37° C. in a 5% CO2 cell culture incubator. 2 μL of the compound was added to each well to final concentrations of 50 μM, 10 μM, 2 μM, 0.4 μM, and 0.08 μM and then incubated for 72 hours at 37° C. in a 5% CO2 cell incubator, with DMSO (2%) as a control group. […] Wells loaded with the corresponding amount of cell culture fluid the and CCK-8 solution but no cells were considered as blank controls. The absorbance (OD value) was measured at 450 nm using a microplate reader, and the obtained data was used to calculate IC50.
Data set [6] relates to diffuse giant B-cell lymphoma (OCI-LY10). As to the kind of experiment: In-vitro tumor cell proliferation inhibition (CCK-8), OCI-LY10. The conditions noted are these: Homo sapiens, OCI-Ly10, 72 h, read-out: Tumor cell proliferation inhibitory activity (IC50, nM) OCI-LY10.
Description: as §11, §12, §13, §14
Data set [7] relates to human diffuse large B lymphoma (TMD-8). Put plainly: In-vitro tumor cell proliferation inhibition (CCK-8), TMD-8. The conditions noted are these: TMD8, 72 h, read-out: Tumor cell proliferation inhibitory activity (IC50, nM) TMD-8.
Description: as §11, §12, §13, §14

JAK3, sequence (P52333 whole entry, species assumed): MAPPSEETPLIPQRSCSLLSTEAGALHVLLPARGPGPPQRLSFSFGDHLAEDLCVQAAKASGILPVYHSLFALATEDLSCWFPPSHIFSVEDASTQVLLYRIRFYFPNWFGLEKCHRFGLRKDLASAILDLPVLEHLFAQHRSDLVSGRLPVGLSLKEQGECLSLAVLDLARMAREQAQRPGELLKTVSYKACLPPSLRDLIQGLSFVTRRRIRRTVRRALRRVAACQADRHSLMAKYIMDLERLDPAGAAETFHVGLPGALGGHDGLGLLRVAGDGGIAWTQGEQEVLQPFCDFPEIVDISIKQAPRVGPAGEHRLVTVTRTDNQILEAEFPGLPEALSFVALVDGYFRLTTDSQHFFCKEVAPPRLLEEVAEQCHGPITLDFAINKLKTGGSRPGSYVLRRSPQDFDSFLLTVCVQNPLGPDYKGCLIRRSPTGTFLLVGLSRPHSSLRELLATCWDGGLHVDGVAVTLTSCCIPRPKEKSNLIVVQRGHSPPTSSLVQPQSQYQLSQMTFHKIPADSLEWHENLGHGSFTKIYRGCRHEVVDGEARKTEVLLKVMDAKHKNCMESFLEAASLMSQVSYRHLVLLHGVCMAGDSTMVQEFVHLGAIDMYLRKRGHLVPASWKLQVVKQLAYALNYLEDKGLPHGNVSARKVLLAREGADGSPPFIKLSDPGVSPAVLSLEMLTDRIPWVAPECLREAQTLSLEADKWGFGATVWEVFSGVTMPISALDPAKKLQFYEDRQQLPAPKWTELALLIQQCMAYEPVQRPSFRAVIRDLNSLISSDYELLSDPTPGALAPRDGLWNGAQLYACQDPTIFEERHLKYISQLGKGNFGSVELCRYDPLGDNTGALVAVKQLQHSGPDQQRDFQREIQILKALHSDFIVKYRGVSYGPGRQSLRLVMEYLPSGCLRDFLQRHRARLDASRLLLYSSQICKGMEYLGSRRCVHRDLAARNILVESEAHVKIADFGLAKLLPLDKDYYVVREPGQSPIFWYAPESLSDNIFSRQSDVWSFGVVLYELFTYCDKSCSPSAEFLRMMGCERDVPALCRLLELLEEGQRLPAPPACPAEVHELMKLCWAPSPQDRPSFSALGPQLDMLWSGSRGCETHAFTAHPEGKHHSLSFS

For the compound `C=CC(=O)N1CC[C@@H](n2nc(-c3ccc(Oc4ccccc4)nc3F)c3c(N)ncnc32)C1` [Compound 24a, (R)-1-(3-(4-amino-3-(2-fluoro-6-phenoxypyridin-3-yl)-1H-pyrazolo[3,4-d]pyrimidin-1-yl)pyrrolidin-1-yl)prop-2-en-1-one], the IC50 at FGR is above 1000 nM. For the same compound, the IC50 on JAK3 was above 1000 nM. In addition, in data set [1], the “level of IL-1β in serum (in words)” value was “significantly reduce”; the “IL-1β” value was 19.32 ± 4.2 ng/L; the “inflammatory cell infiltration, synovial hyperplasia, inflammatory granulation tissue formation, necrotic tissue” value is “significantly improved”. In data set [2], the “TGI*(14 days) (%) calculated on the basis of tumor volume” value is recorded as 73.80% and the “TGI**(14 days) (%) calculated on the basis of tumor weight” value is 65.19%. Further, in data set [3], the “oral bioavailability relative to ibrutinib” value came out at 4.62 times, the AUC0-C(ng/h/mL) was 2140 ng·h/mL, the AUC0-t (ng/h/mL) turned out to be 2080 ng·h/mL and the bioavailability was found to be 57.8%. In [3], the Cmax came to 548 ng/mL, the Tmax was 0.75 h and the half-life is 1.7 h. In addition, the IC50 in [4] worked out at 2.11 µM. Also, in [5], the IC50 came out at 9.46 µM. Also, the IC50 in data set [6] worked out at 2.17 nM. Moreover, in data set [7], the IC50 was found to be 16.9 nM.
Turning to `C=CC(=O)N1CCC[C@@H](n2nc(-c3ccc(Oc4ccccc4)nc3)c3c(N)ncnc32)C1` [Compound 15a, (R)-1-(3-(4-amino-3-(6-phenoxypyridin-3-yl)-1H-pyrazolo[3,4-d]pyrimidin-1-yl)piperidin-1-yl) prop-2-en-1-one], the IC50 on FGR is above 1000 nM. Besides, at JAK3, the IC50 was above 1000 nM. For the same compound, in data set [1], the “level of IL-1β in serum (in words)” value was “significantly reduce”; the “IL-1β” value amounted to 18.72 ± 6.6 ng/L; the “inflammatory cell infiltration, synovial hyperplasia, inflammatory granulation tissue formation, necrotic tissue” value is given as “significantly improved”. For the same compound, in data set [2], the “TGI*(14 days) (%) calculated on the basis of tumor volume” value was 65.01% and the “TGI**(14 days) (%) calculated on the basis of tumor weight” value was 61.00%. Moreover, in data set [3], the “oral bioavailability relative to ibrutinib” value was found to be 1.67 times, the AUC0-C(ng/h/mL) was 698 ng·h/mL, the AUC0-t (ng/h/mL) was found to be 624 ng·h/mL and the bioavailability turned out to be 20.9%. In data set [3], the highest level (Cmax) was 292 ng/mL, the Tmax came out at 0.333 h and the half-life is 6.17 h. Also, the IC50 in [4] came to 1.56 µM. The IC50 in data set [5] stood at 6.17 µM. Besides, the IC50 in data set [6] was 2.5 nM. In addition, the IC50 in data set [7] came out at 8.16 nM.
